The target of the assay is T1, HIV-1 Reverse Transkriptase (Human immunodeficiency virus type 1 group M subtype B, UniProt P03366).
T1 construct: Rekombinante HIV-1 Reverse Transkriptase (66 kDa); made in house; host or cells: Escherichia coli
Kind of assay: HIV-1 RT test (3H-TTP incorporation, recombinant enzyme). The assay is classed as biochemical. As to conditions: positive control; read-out: IC₅₀ (HIV-1 RT). An excerpt:
Zur Untersuchung der biologischen Aktivität wird das aufgereinigte Protein (P 1) in einem Ribosomen-Hemmtest und einem HIV-1 RT Test eingesetzt. Im Ribosomen-Hemmtest wird die Inaktivierung von Ribosomen in einem Retikulozyten-Lysat durch das erfindungsgemäße Protein gemessen (vgl. Krawetz et al., 1983). Im HIV-1 RT Test wird die Hemmung der HIV-1 Reverse Transkriptase (HIV-1 RT) durch das erfindungsgemäße Protein P 1 bestimmt (vgl. Tan et al., 1991).
Enzym: Rekombinante HIV-1 Reverse Transkriptase (66 kDa), exprimiert in Escherichia coli (vgl. Tan et al., 1991 und darin zitierte Literatur). Die Aktivität des Enzyms in RT-Testsystemen ist von viralem Enzym nicht zu unterscheiden. Protein-Konzentration: 0,11 mg/ml; Aktivität: Einbau von 238 nM TTP/mg Protein in 10 min bei 37°C. Testansatz: 50 mM Tris-HCl, pH 8,0, 150 mM KCl, 5 mM MgCl₂, 0,5 mM EGTA, 5 mM Dithiothreitol, 0,3 mM Glutathion, 2,5 µg/ml BSA, 41 µM poly(A) (Σ₂₆₀(mM) = 7,8), 9,5 µM oligo(dT)₁₂₋₁₈ (Σ₂₆₅(mM) = 5,6), 0,05% Triton X-100, 20 µm TTP und 0,5 µCi (³H)-TTP (Endvolumen 100 µl). Probenlösung: 10 µl, in H₂O oder 25 mM Tris-HCl, pH 8,4. HIV-1 RT: 10 µl (0,11 µg in Testpuffer)
Die Polymerisationsreaktion wird durch den Zusatz der HIV-1 RT-Lösung zum Testansatz gestartet. Nach einer Inkubationszeit von 1 Stunde (37°C) wird die Reaktion durch Zugabe von 25 µl einer 0,1 M EGTA-Lösung gestoppt und die Ansätze auf Eis gekühlt. […]

`COc1cc2c(ccc3c4cc(OC)c(OC)cc4c[n+](C)c23)cc1O` [Fagaronin-Chlorid]: the IC50 is 13 µM.
